# Reference: patent US8562949B2, “Radiolabeled dihydrotetrabenazine derivatives and their use as imaging agents” (The Trustees of the University of Pennsylvania, priority 2006, dated 2013)
# Legend:
# [1] = molecular target: T1, VMAT2 (Mus musculus, UniProt Q8BRU6); assay: Blocking study in normal mice, co-injection of DTBZ or raclopride; type: in vivo; design: from tissue; host or cells: living ICR mice and lesioned mice; brain regions dissected after iv injection; settings: 30 min after iv
# Description: While under isoflurane anesthesia, 0.15 mL of a 0.1% bovine serum albumin solution containing [^18F]tracers (10-20 μCi) were injected directly into the tail vein of ICR mice (22-25 g, male) The mice (n=3 for each time point) were sacrificed by cervical dislocation at indicated time points post injection. The organs of interest were removed and weighed, and the radioactivity was counted with an automatic gamma counter. The percentage dose per organ was calculated by a comparison of the tissue counts to suitably diluted aliquots of the injected material. Total activities of blood were calculated under the assumption that they were 7% of the total body weight. The % dose/g of samples was calculated by comparing the sample counts with the count of the diluted initial dose. Different regions corresponding to striatum (ST), hippocampus (HP), cerebellum (CB), and cortex (CX) were dissected out from the brain.
# Blocking studies were carried out by co-injection (iv) of the ^18F tracer with (±)DTBZ (3 mg/kg) or raclopride (1.2 mg/kg) into the animals. Thirty minutes after the injection, the animals were sacrificed and the brain regions including ST, HP, CB and CX were dissected out and the % dose/g were calculated. The ratios of target (ST) vs nontarget (CB) were compared between control and blocked groups.
# [2] = molecular target: T1, VMAT2; assay: Saturation binding of 18F ligands in mouse striatal homogenates; design: The basal forebrain regions of rat and mouse brains were then dissected; from tissue; host or cells: mouse striatal homogenate; mouse brain coronal sections; settings: estimated based on S.A.=2000 Ci/mmole
# Description: The basal forebrain regions of rat and mouse brains were then dissected. The tissue homogenates were prepared in 50 mM Hepes, pH 7.5 and 0.3 M sucrose. The specific binding of ^3H or ^18F ligands were determined following the procedures described (Scherman D, Raisman R, Ploska A, Agid Y., [^3H]Dihydrotetrabenazine, a new in vitro monoaminergic probe for human brain, J. Neurochem., 1988:50:1131-36). Total volume of reaction for the assay was 0.2 ml. […] In saturation experiments, increasing concentrations of labeled ligand […] in 50 μl buffer were incubated with 100 μl of homogenates (100-250 μg). Incubation was carried out routinely at room temperature for 90 min. The samples were then filtered through glass fiber filters No. 25 (Schleicher and Schuell, Keene, N.H.) and the bound radioactivity was determined for ^18F in a gamma counter (Packard 5000) with 70% efficiency. Filters containing bound ^3H ligand were dissolved in 7 ml Ecolite(+) overnight and the radioactivity was counted next day in the scintillation counter (Beckman) with 65% counting efficiency. […] Nonspecific binding was determined in the presence of 10 μM tetrabenazine. Both saturation and competition experiments were analyzed using the nonlinear least-square curve fitting program LIGAND. […]
# T1 sequence (Q8BRU6 whole entry): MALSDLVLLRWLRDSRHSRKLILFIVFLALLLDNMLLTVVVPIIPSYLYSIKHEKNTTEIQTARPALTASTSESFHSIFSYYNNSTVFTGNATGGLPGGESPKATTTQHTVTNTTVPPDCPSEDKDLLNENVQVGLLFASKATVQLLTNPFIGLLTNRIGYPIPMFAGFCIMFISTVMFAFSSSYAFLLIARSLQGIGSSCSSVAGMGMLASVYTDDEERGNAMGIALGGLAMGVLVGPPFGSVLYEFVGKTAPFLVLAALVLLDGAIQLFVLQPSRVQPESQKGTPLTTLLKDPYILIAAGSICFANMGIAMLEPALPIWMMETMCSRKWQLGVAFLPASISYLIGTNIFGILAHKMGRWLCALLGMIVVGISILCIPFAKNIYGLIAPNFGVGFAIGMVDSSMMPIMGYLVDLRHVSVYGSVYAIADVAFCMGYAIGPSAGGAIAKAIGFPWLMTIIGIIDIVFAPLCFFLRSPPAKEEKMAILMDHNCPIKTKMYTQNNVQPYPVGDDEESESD
compound,measurement,setting,value
COc1cc2c(cc1OCCC[18F])CCN1CC(CC(C)C)C(O)CC21 (racemic) [[^18F]6b],Organ distribution Blood,[1]; Control,1.41 ± 0.20 % dose/g
same,Organ distribution Bone,[1]; Control,6.06 ± 1.11 % dose/g
same,Organ distribution Brain,[1]; Control,1.40 ± 0.12 % dose/g
same,Organ distribution Heart,[1]; Control,2.05 ± 0.13 % dose/g
same,Organ distribution Kidney,[1]; Control,5.90 ± 0.42 % dose/g
same,Organ distribution Liver,[1]; Control,13.9 ± 1.15 % dose/g
same,Organ distribution Lung,[1]; Control,2.78 ± 0.20 % dose/g
same,Organ distribution Muscle,[1]; Control,1.06 ± 0.06 % dose/g
same,Organ distribution Skin,[1]; Control,1.48 ± 0.09 % dose/g
same,Organ distribution Spleen,[1]; Control,2.90 ± 0.14 % dose/g
same,Ratio (vs CB) Cortex,[1]; Control,1.15
same,Ratio (vs CB) Hippocampus,[1]; Control,1.36
same,Ratio (vs CB) Hypothalamus,[1]; Control,2.54
same,Ratio (vs CB) Striatum,[1]; Control,3.40
same,Regional brain distribution Cerebellum (CB),[1]; Control,1.05 ± 0.09 % dose/g
same,Regional brain distribution Cortex,[1]; Control,1.21 ± 0.15 % dose/g
same,Regional brain distribution Hippocampus,[1]; Control,1.43 ± 0.12 % dose/g
same,Regional brain distribution Hypothalamus,[1]; Control,2.67 ± 0.30 % dose/g
same,Regional brain distribution Striatum,[1]; Control,3.57 ± 0.30 % dose/g
same,Organ distribution Blood,[1]; with 1.2 mg/kg raclopride,1.60 ± 0.08 % dose/g
same,Organ distribution Bone,[1]; with 1.2 mg/kg raclopride,6.03 ± 1.07 % dose/g
same,Organ distribution Brain,[1]; with 1.2 mg/kg raclopride,1.64 ± 0.16 % dose/g
same,Organ distribution Heart,[1]; with 1.2 mg/kg raclopride,2.29 ± 0.06 % dose/g
same,Organ distribution Kidney,[1]; with 1.2 mg/kg raclopride,6.01 ± 0.50 % dose/g
same,Organ distribution Liver,[1]; with 1.2 mg/kg raclopride,14.6 ± 0.44 % dose/g
same,Organ distribution Lung,[1]; with 1.2 mg/kg raclopride,3.34 ± 0.24 % dose/g
same,Organ distribution Muscle,[1]; with 1.2 mg/kg raclopride,1.15 ± 0.03 % dose/g
same,Organ distribution Skin,[1]; with 1.2 mg/kg raclopride,1.58 ± 0.09 % dose/g
same,Organ distribution Spleen,[1]; with 1.2 mg/kg raclopride,3.25 ± 0.20 % dose/g
same,Ratio (vs CB) Cortex,[1]; with 1.2 mg/kg raclopride,1.18
same,Ratio (vs CB) Hippocampus,[1]; with 1.2 mg/kg raclopride,1.59
same,Ratio (vs CB) Hypothalamus,[1]; with 1.2 mg/kg raclopride,2.12
same,Ratio (vs CB) Striatum,[1]; with 1.2 mg/kg raclopride,3.93
same,Regional brain distribution Cerebellum (CB),[1]; with 1.2 mg/kg raclopride,1.19 ± 0.11 % dose/g
same,Regional brain distribution Cortex,[1]; with 1.2 mg/kg raclopride,1.41 ± 0.15 % dose/g
same,Regional brain distribution Hippocampus,[1]; with 1.2 mg/kg raclopride,1.89 ± 0.85 % dose/g
same,Regional brain distribution Hypothalamus,[1]; with 1.2 mg/kg raclopride,2.52 ± 0.77 % dose/g
same,Regional brain distribution Striatum,[1]; with 1.2 mg/kg raclopride,4.67 ± 1.29 % dose/g
same,Organ distribution Blood,[1]; with 3 mg/kg (+)DTBZ,1.67 ± 0.04 % dose/g
same,Organ distribution Bone,[1]; with 3 mg/kg (+)DTBZ,6.54 ± 0.84 % dose/g
same,Organ distribution Brain,[1]; with 3 mg/kg (+)DTBZ,0.86 ± 0.04 % dose/g
same,Organ distribution Heart,[1]; with 3 mg/kg (+)DTBZ,2.36 ± 0.07 % dose/g
same,Organ distribution Kidney,[1]; with 3 mg/kg (+)DTBZ,4.94 ± 3.38 % dose/g
same,Organ distribution Liver,[1]; with 3 mg/kg (+)DTBZ,14.0 ± 0.56 % dose/g
same,Organ distribution Lung,[1]; with 3 mg/kg (+)DTBZ,3.27 ± 0.17 % dose/g
same,Organ distribution Muscle,[1]; with 3 mg/kg (+)DTBZ,1.28 ± 0.07 % dose/g
same,Organ distribution Skin,[1]; with 3 mg/kg (+)DTBZ,1.67 ± 0.02 % dose/g
same,Organ distribution Spleen,[1]; with 3 mg/kg (+)DTBZ,2.67 ± 0.17 % dose/g
same,Ratio (vs CB) Cortex,[1]; with 3 mg/kg (+)DTBZ,1.03
same,Ratio (vs CB) Hippocampus,[1]; with 3 mg/kg (+)DTBZ,0.94
same,Ratio (vs CB) Hypothalamus,[1]; with 3 mg/kg (+)DTBZ,1.04
same,Ratio (vs CB) Striatum,[1]; with 3 mg/kg (+)DTBZ,0.98
same,Regional brain distribution Cerebellum (CB),[1]; with 3 mg/kg (+)DTBZ,0.89 ± 0.16 % dose/g
same,Regional brain distribution Cortex,[1]; with 3 mg/kg (+)DTBZ,0.91 ± 0.13 % dose/g
same,Regional brain distribution Hippocampus,[1]; with 3 mg/kg (+)DTBZ,0.83 ± 0.27 % dose/g
same,Regional brain distribution Hypothalamus,[1]; with 3 mg/kg (+)DTBZ,0.92 ± 0.23 % dose/g
same,Regional brain distribution Striatum,[1]; with 3 mg/kg (+)DTBZ,0.87 ± 0.18 % dose/g
same,Kd,[2],0.48 nM
